Reference: patent publication US10004701B2, “Methods and compositions for treating infection” (UNIVERSITY OF ROCHESTER, priority 2012, dated 2018)
Where a name gives a salt, the structure may show the parent alone. Read-outs that look alike come from different tables or passages of the source.

Columns and labels:
Experiment in all cases: AK assay 384-well format, Prestwick library screening
[1] = test system: K. pneumoniae; type: cell-based, Klebsiella pneumoniae; settings: Klebsiella pneumoniae, 3 h, 50 μM final drug concentration
[2] = test system: S. aureus strain USA300-0114; type: cell-based, Staphylococcus aureus; settings: Staphylococcus aureus, USA300, 3 h, 50 μM final drug concentration
[3] = test system: E. coli; type: cell-based, Escherichia coli; settings: Escherichia coli, 3 h, 50 μM final drug concentration
[4] = test system: A. baumannii strain 98-37-09; type: cell-based, Acinetobacter baumannii; settings: Acinetobacter baumannii, 983709, 3 h, 50 μM final drug concentration
[5] = test system: E. faecium; type: cell-based, Enterococcus faecium; settings: Enterococcus faecium, 3 h, 50 μM final drug concentration
[6] = test system: P. aeruginosa; type: cell-based, Pseudomonas aeruginosa; settings: Pseudomonas aeruginosa, 3 h, 50 μM final drug concentration
[7] = test system: E. cloacae; type: cell-based, Enterobacter cloacae; settings: Enterobacter cloacae, 3 h, 50 μM final drug concentration
[8] = planktonic, cutoff for positive-scoring molecules 3-fold increase, read-out: AK-based Prestwick Library Screening Results, K. pneumoniae (fold increase in extracellular AK activity)
[9] = planktonic, cutoff for positive-scoring molecules 3-fold increase, read-out: AK-based Prestwick Library Screening Results, S. aureus (fold increase in extracellular AK activity)
[10] = planktonic, cutoff for positive-scoring molecules 3-fold increase, read-out: AK-based Prestwick Library Screening Results, E. coli (fold increase in extracellular AK activity)
[11] = planktonic, cutoff for positive-scoring molecules 3-fold increase, read-out: AK-based Prestwick Library Screening Results, A. baumannii (fold increase in extracellular AK activity)
[12] = planktonic, cutoff for positive-scoring molecules 3-fold increase, read-out: AK-based Prestwick Library Screening Results, E. faecium (fold increase in extracellular AK activity)
[13] = planktonic, cutoff for positive-scoring molecules 3-fold increase, read-out: AK-based Prestwick Library Screening Results, P. aeruginosa (fold increase in extracellular AK activity)
[14] = planktonic, cutoff for positive-scoring molecules 3-fold increase, read-out: AK-based Prestwick Library Screening Results, E. cloacae (fold increase in extracellular AK activity)

Compound: CCc1oc2ccccc2c1C(=O)c1cc(Br)c(O)c(Br)c1 [Benzbromarone]
- fold induction at 50 µM ([1]; planktonic, cutoff for positive 3-fold increase, read-out: AK-based Prestwick Library Screening Results, K. pneumoniae (fold increase in extracellular AK activity)): 0.9
- fold induction at 50 µM ([2]; planktonic, cutoff for positive 3-fold increase, read-out: AK-based Prestwick Library Screening Results, S. aureus (fold increase in extracellular AK activity)): 0.4
- fold induction at 50 µM ([3]; planktonic, cutoff for positive 3-fold increase, read-out: AK-based Prestwick Library Screening Results, E. coli (fold increase in extracellular AK activity)): 1.1
- fold induction at 50 µM ([4]; planktonic, cutoff for positive 3-fold increase, read-out: AK-based Prestwick Library Screening Results, A. baumannii (fold increase in extracellular AK activity)): 1.4
- fold induction at 50 µM ([5]; planktonic, cutoff for positive 3-fold increase, read-out: AK-based Prestwick Library Screening Results, E. faecium (fold increase in extracellular AK activity)): 1.2
- fold induction at 50 µM ([6]; planktonic, cutoff for positive 3-fold increase, read-out: AK-based Prestwick Library Screening Results, P. aeruginosa (fold increase in extracellular AK activity)): 1.5
- fold induction at 50 µM ([7]; planktonic, cutoff for positive 3-fold increase, read-out: AK-based Prestwick Library Screening Results, E. cloacae (fold increase in extracellular AK activity)): 1.4

Compound: Cc1nccn1CC1CCc2c(c3ccccc3n2C)C1=O (stereo not drawn) [Ondansetron Hydrochloride]
- fold induction at 50 µM ([1]; planktonic K. pneumoniae, positive cutoff 3-fold increase, read-out: AK-based Prestwick library screening result, K. pneumoniae (fold increase in extracellular AK activity)): 0.6
- fold induction at 50 µM ([2]; planktonic S. aureus, positive cutoff 3-fold increase, read-out: AK-based Prestwick library screening result, S. aureus (fold increase in extracellular AK activity)): 0.6
- fold induction at 50 µM ([3]; planktonic E. coli, positive cutoff 3-fold increase, read-out: AK-based Prestwick library screening result, E. coli (fold increase in extracellular AK activity)): 0.7
- fold induction at 50 µM ([4]; planktonic A. baumannii, positive cutoff 3-fold increase, read-out: AK-based Prestwick library screening result, A. baumannii (fold increase in extracellular AK activity)): 0.7
- fold induction at 50 µM ([5]; planktonic E. faecium, positive cutoff 3-fold increase, read-out: AK-based Prestwick library screening result, E. faecium (fold increase in extracellular AK activity)): 1.1
- fold induction at 50 µM ([6]; planktonic P. aeruginosa, positive cutoff 3-fold increase, read-out: AK-based Prestwick library screening result, P. aeruginosa (fold increase in extracellular AK activity)): 0.7
- fold induction at 50 µM ([7]; planktonic E. cloacae, positive cutoff 3-fold increase, read-out: AK-based Prestwick library screening result, E. cloacae (fold increase in extracellular AK activity)): 0.8

Compound: CC1=C(CC(=O)O)c2cc(F)ccc2/C1=C\c1ccc([S+](C)[O-])cc1 (stereo not drawn) [Sulindac]
- fold induction at 50 µM ([1]; planktonic K. pneumoniae, 384-well, cutoff for positive-scoring molecules 3-fold increase, read-out: AK-based Prestwick Library Screening Results: K. pneumoniae (increase in extracellular AK activity)): 1
- fold induction at 50 µM ([2]; planktonic S. aureus, 384-well, cutoff for positive-scoring molecules 3-fold increase, read-out: AK-based Prestwick Library Screening Results: S. aureus (increase in extracellular AK activity)): 0.8
- fold induction at 50 µM ([3]; planktonic E. coli, 384-well, cutoff for positive-scoring molecules 3-fold increase, read-out: AK-based Prestwick Library Screening Results: E. coli (increase in extracellular AK activity)): 1.1
- fold induction at 50 µM ([4]; planktonic A. baumannii, 384-well, cutoff for positive-scoring molecules 3-fold increase, read-out: AK-based Prestwick Library Screening Results: A. baumannii (increase in extracellular AK activity)): 1.1
- fold induction at 50 µM ([5]; planktonic E. faecium, 384-well, cutoff for positive-scoring molecules 3-fold increase, read-out: AK-based Prestwick Library Screening Results: E. faecium (increase in extracellular AK activity)): 0.9
- fold induction at 50 µM ([6]; planktonic P. aeruginosa, 384-well, cutoff for positive-scoring molecules 3-fold increase, read-out: AK-based Prestwick Library Screening Results: P. aeruginosa (increase in extracellular AK activity)): 0.8
- fold induction at 50 µM ([7]; planktonic E. cloacae, 384-well, cutoff for positive-scoring molecules 3-fold increase, read-out: AK-based Prestwick Library Screening Results: E. cloacae (increase in extracellular AK activity)): 1.5

Compound: N[C@@H]1C[C@H]1c1ccccc1 [Tranylcypromine hydrochloride]
- fold induction at 50 µM ([1]; 384-well format, cutoff for positive-scoring molecules 3-fold increase, read-out: AK-based Prestwick Library Screening Results, K. pneumoniae (increase in extracellular AK activity)): 0.6
- fold induction at 50 µM ([2]; 384-well format, cutoff for positive-scoring molecules 3-fold increase, read-out: AK-based Prestwick Library Screening Results, S. aureus (increase in extracellular AK activity)): 0.8
- fold induction at 50 µM ([3]; 384-well format, cutoff for positive-scoring molecules 3-fold increase, read-out: AK-based Prestwick Library Screening Results, E. coli (increase in extracellular AK activity)): 0.8
- fold induction at 50 µM ([4]; 384-well format, cutoff for positive-scoring molecules 3-fold increase, read-out: AK-based Prestwick Library Screening Results, A. baumannii (increase in extracellular AK activity)): 0.9
- fold induction at 50 µM ([5]; 384-well format, cutoff for positive-scoring molecules 3-fold increase, read-out: AK-based Prestwick Library Screening Results, E. faecium (increase in extracellular AK activity)): 1
- fold induction at 50 µM ([6]; 384-well format, cutoff for positive-scoring molecules 3-fold increase, read-out: AK-based Prestwick Library Screening Results, P. aeruginosa (increase in extracellular AK activity)): 0.8
- fold induction at 50 µM ([7]; 384-well format, cutoff for positive-scoring molecules 3-fold increase, read-out: AK-based Prestwick Library Screening Results, E. cloacae (increase in extracellular AK activity)): 0.9

Compound: Nc1nc(O)c2ncn(COC(CO)CO)c2n1 [Ganciclovir]
- fold induction at 50 µM [1, 8]: 0.7
- fold induction at 50 µM [2, 9]: 0.9
- fold induction at 50 µM [3, 10]: 0.9
- fold induction at 50 µM [4, 11]: 0.8
- fold induction at 50 µM [5, 12]: 0.9
- fold induction at 50 µM [6, 13]: 0.9
- fold induction at 50 µM [7, 14]: 1.4

Compound: CC1=C(C(=O)O)N2C(=O)[C@@H](NC(=O)[C@H](N)c3ccc(O)cc3)[C@H]2SC1 [Cefadroxil]
- fold induction at 50 µM ([1]; planktonic K. pneumoniae, cutoff for positive-scoring molecules 3-fold increase, read-out: AK-based Prestwick Library Screening Results, K. pneumoniae (increase in extracellular AK activity)): 0.8
- fold induction at 50 µM ([2]; planktonic S. aureus, cutoff for positive-scoring molecules 3-fold increase, read-out: AK-based Prestwick Library Screening Results, S. aureus (increase in extracellular AK activity)): 0.5
- fold induction at 50 µM ([3]; planktonic E. coli, cutoff for positive-scoring molecules 3-fold increase, read-out: AK-based Prestwick Library Screening Results, E. coli (increase in extracellular AK activity)): 0.9
- fold induction at 50 µM ([4]; planktonic A. baumannii, cutoff for positive-scoring molecules 3-fold increase, read-out: AK-based Prestwick Library Screening Results, A. baumannii (increase in extracellular AK activity)): 0.9
- fold induction at 50 µM ([5]; planktonic E. faecium, cutoff for positive-scoring molecules 3-fold increase, read-out: AK-based Prestwick Library Screening Results, E. faecium (increase in extracellular AK activity)): 0.8
- fold induction at 50 µM ([6]; planktonic P. aeruginosa, cutoff for positive-scoring molecules 3-fold increase, read-out: AK-based Prestwick Library Screening Results, P. aeruginosa (increase in extracellular AK activity)): 0.8
- fold induction at 50 µM ([7]; planktonic E. cloacae, cutoff for positive-scoring molecules 3-fold increase, read-out: AK-based Prestwick Library Screening Results, E. cloacae (increase in extracellular AK activity)): 1.2

Compound: O=C(O)c1cccnc1 [Niacin]
- fold induction at 50 µM [1, 8]: 0.5
- fold induction at 50 µM [2, 9]: 0.6
- fold induction at 50 µM [3, 10]: 0.7
- fold induction at 50 µM [4, 11]: 0.6
- fold induction at 50 µM [5, 12]: 0.9
- fold induction at 50 µM [6, 13]: 0.6
- fold induction at 50 µM [7, 14]: 0.7

Compound: COc1cc2nc(N3CCN(C(=O)C4COc5ccccc5O4)CC3)nc(N)c2cc1OC (stereo not drawn) [Doxazosin mesylate]
- fold induction at 50 µM ([1]; cutoff for positive-scoring molecules 3-fold increase, read-out: AK-based Prestwick Library Screening Results, K. pneumoniae (fold increase in extracellular AK activity)): 0.9
- fold induction at 50 µM ([2]; cutoff for positive-scoring molecules 3-fold increase, read-out: AK-based Prestwick Library Screening Results, S. aureus (fold increase in extracellular AK activity)): 1.2
- fold induction at 50 µM ([3]; cutoff for positive-scoring molecules 3-fold increase, read-out: AK-based Prestwick Library Screening Results, E. coli (fold increase in extracellular AK activity)): 1.4
- fold induction at 50 µM ([4]; cutoff for positive-scoring molecules 3-fold increase, read-out: AK-based Prestwick Library Screening Results, A. baumannii (fold increase in extracellular AK activity)): 1.3
- fold induction at 50 µM ([5]; cutoff for positive-scoring molecules 3-fold increase, read-out: AK-based Prestwick Library Screening Results, E. faecium (fold increase in extracellular AK activity)): 1.1
- fold induction at 50 µM ([6]; cutoff for positive-scoring molecules 3-fold increase, read-out: AK-based Prestwick Library Screening Results, P. aeruginosa (fold increase in extracellular AK activity)): 1.1
- fold induction at 50 µM ([7]; cutoff for positive-scoring molecules 3-fold increase, read-out: AK-based Prestwick Library Screening Results, E. cloacae (fold increase in extracellular AK activity)): 1.5

Compound: C[C@]12CC[C@@H]3c4ccc(O)cc4CC[C@H]3[C@@H]1CCC2=O [Estrone]
- fold induction at 50 µM [1, 8]: 0.7
- fold induction at 50 µM [2, 9]: 0.7
- fold induction at 50 µM [3, 10]: 0.8
- fold induction at 50 µM [4, 11]: 0.8
- fold induction at 50 µM [5, 12]: 0.8
- fold induction at 50 µM [6, 13]: 0.8
- fold induction at 50 µM [7, 14]: 1.4
